In patent US12691070B2, “Cationic lipids and preparation method thereof” (RiboX Therapeutics HK Limited, priority 2023, dated 2026):
Values belong to the compound of their own block, whether it stands above or below them.

Tests used:
[1] = LNP zeta potential (Zetasizer); assay type: physicochemical; settings: LNP with cirRNA (SEQ ID NO: 1)
Procedure, shortened: (§1)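 Dynamic light scattering and zeta potential measurements were run on PBS-dialyzed LNPs, which had been formed by microfluidic mixing at 12 ml/min with final lipid at 1.5 mM to 6 mM. RNA content and percent encapsulation were determined by Ribogreen with and without Triton X-100.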

[2] = test system: BALB/C mice; test: In vivo expression, whole-body luminescence (IVIS); settings: cirRNA (SEQ ID NO: 1) LNPs, BALB/C mice
Protocol: 6-8 week old, female BALB/C mice were injected with 0.05 mg*kg-1 of RNA-LNPs encoding for firefly-luciferase by intravenous injection. At 6 hours post injection, animals were intraperitoneally injected with 15 mg/ml of Luciferin substrate and whole-body luminescence was determined by a bioluminescent in vivo imaging system (IVIS).

[3] = test system: RAW 264.7 cells; test: In vitro expression of firefly-luciferase, RAW 264.7; assay type: cell-based; settings: cirRNA (SEQ ID NO: 1) LNPs; firefly-luciferase luminescence; RAW 264.7 cells
Procedure, shortened: (§2)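 Luminescence from cell lysates reports expression: luciferase activity was measured 72 h after transfection with 100 ng/mL RNA-LNPs encoding firefly luciferase.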

[4] = test system: Hep G2 cells; test: In vitro toxicity (CellTiter-Glo cell viability), Hep G2; assay type: cell-based; settings: cirRNA (SEQ ID NO: 1) LNPs; Hep G2 cells;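 note: percent of untreated cells luminescence signal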
Procedure, shortened: (§3)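 Luminescent ATP read-out (CellTiter-Glo) gives the viability value, taken 72 h after cells were exposed to RNA-loaded lipid nanoparticles at 1 μg/mL.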

[5] = test system: Hep G2 cells; test: In vitro expression of firefly-luciferase, Hep G2; assay type: cell-based; settings: cirRNA (SEQ ID NO: 1) LNPs; firefly-luciferase luminescence; Hep G2 cells
Procedure, shortened: as §2

[6] = RNA encapsulation efficacy by Quant-IT Ribogreen kit; assay type: physicochemical; settings: LNP with cirRNA (SEQ ID NO: 1)
Procedure, shortened: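 Ribogreen fluorescence with and without Triton X-100 gave encapsulation as 100% − (intact/lysed) signal; DLS size, PDI and zeta potential measured on a Zetasizer. Particles: 50:10:38.5:1.5 lipid mix, luciferase circRNA or mRNA, lipid:nucleotide 15 or 6, microfluidic assembly at pH 4.5, PBS-dialyzed.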

[7] = LNP size and polydispersity index (PDI) by dynamic light scattering; assay type: physicochemical; settings: LNP with cirRNA (SEQ ID NO: 1); for Size: in nm (unit assumed)
Procedure, shortened: as §1

[8] = test system: RAW 264.7 cells; test: In vitro toxicity (CellTiter-Glo cell viability), RAW 264.7; assay type: cell-based; settings: cirRNA (SEQ ID NO: 1) LNPs; RAW 264.7 cells;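 note: percent of untreated cells luminescence signal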
Procedure, shortened: as §3

SMILES: CCCCC/C=C\CCOC(=O)CCCCCN(CCCCCCCCOC(=O)C(CCCCCC)CCCCCCCC)CCOC(=O)NCCN1CCCCC1 (stereo not drawn) [Lipid 192]
Zeta (mV) [1]: −7.77 mV
In vivo Expression (Whole Body) [2]: 8.52E+07
In vitro Expression RAW [3]: 8.42E+03
In vitro Viability HepG2 [4]: 94%
In vitro Expression HepG2 [5]: 4.18E+04
Encapsulation Efficiency % [6]: 92%
PDI [7]: 0.1344
Size [7]: 76.52
In vitro Viability RAW [8]: 86%

SMILES: CCCCCCCOC(=O)CCCCCCCCCN(CCCCCCCCCC(=O)OCCCCCCC)CCOC(=O)NCCCN(CC)CC [Lipid 122, heptyl 3-ethyl-12-(10-(heptyloxy)-10-oxodecyl)-8-oxo-9-oxa-3,7,12-triazadocosan-22-oate]
Zeta (mV) [1]: 10.84 mV
In vivo Expression (Whole Body) [2]: 1.43E+05
In vitro Expression RAW [3]: 2.24E+04
In vitro Viability HepG2 [4]: 17%
In vitro Expression HepG2 [5]: 2.48E+03
Encapsulation Efficiency % [6]: 96%
PDI [7]: 0.187
Size [7]: 134.6
In vitro Viability RAW [8]: 8%

SMILES: CCCCC/C=C\C/C=C\CCCCCCCCN(CCCCCCCC/C=C\C/C=C\CCCCC)CCOC(=O)NCCN1CCN(C)CC1 [Lipid 37, 2-(di((9Z,12Z)-octadeca-9,12-dien-1-yl)amino)ethyl (2-(4-methylpiperazin-1-yl)ethyl)carbamate]
Zeta (mV) [1]: 4.079 mV
In vivo Expression (Whole Body) [2]: 1.16E+05
In vitro Expression RAW [3]: 1.98E+04
In vitro Viability HepG2 [4]: 87%
In vitro Expression HepG2 [5]: 5.96E+05
Encapsulation Efficiency % [6]: 95%
PDI [7]: 0.138
Size [7]: 145.8
In vitro Viability RAW [8]: 92%

SMILES: CCCCCCCCCCC(CCCCCCCC)COC(=O)CCCCCN(CCCCCC(=O)OCC(CCCCCCCC)CCCCCCCCCC)CCCOC(=O)NCCNC(C)C (stereo not drawn) [Lipid 368]
Zeta (mV) [1]: 3.421 mV
In vivo Expression (Whole Body) [2]: 4.18E+06
In vitro Expression RAW [3]: 1.18E+05
In vitro Viability HepG2 [4]: 68%
In vitro Expression HepG2 [5]: 1.22E+06
Encapsulation Efficiency % [6]: 92%
PDI [7]: 0.2875
Size [7]: 130.2
In vitro Viability RAW [8]: 67%

SMILES: CCCCCCOC(=O)CCCCCCCCCCN(CCCCCCCCCCC(=O)OCCCCCC)CCOC(=O)NCCN1CCN(C)CC1 [Lipid 138, dihexyl 11,11′-((2-(((2-(4-methylpiperazin-1-yl)ethyl)carbamoyl)oxy)ethyl)azanediyl)diundecanoate]
Zeta (mV) [1]: 15.82 mV
In vivo Expression (Whole Body) [2]: 1.30E+05
In vitro Expression RAW [3]: 9.75E+01
In vitro Viability HepG2 [4]: 12%
In vitro Expression HepG2 [5]: 6.75E+01
Encapsulation Efficiency % [6]: 96%
PDI [7]: 0.1821
Size [7]: 130.8
In vitro Viability RAW [8]: 10%

SMILES: CCCCCCCCCCCOC(=O)CCCCCN(CCCCCCCCOC(=O)C(CCCCCC)CCCCCCCC)CCOC(=O)NCCN1CCOCC1 (stereo not drawn) [Lipid 223]
Zeta (mV) [1]: −2.046 mV
In vivo Expression (Whole Body) [2]: 5.53E+06
In vitro Expression RAW [3]: 4.76E+04
In vitro Viability HepG2 [4]: 92%
In vitro Expression HepG2 [5]: 6.42E+04
Encapsulation Efficiency % [6]: 92%
PDI [7]: 0.08837
Size [7]: 60.01
In vitro Viability RAW [8]: 76%

SMILES: CCCCCCCOC(=O)CCCCCCCCCN(CCCCCCCCCC(=O)OCCCCCCC)CCOC(=O)NCCN(C)C [Lipid 120, heptyl 10-(10-(heptyloxy)-10-oxodecyl)-2-methyl-6-oxo-7-oxa-2,5,10-triazaicosan-20-oate]
Zeta (mV) [1]: 9.34 mV
In vivo Expression (Whole Body) [2]: 3.33E+05
In vitro Expression RAW [3]: 8.51E+03
In vitro Viability HepG2 [4]: 100%
In vitro Expression HepG2 [5]: 2.13E+03
Encapsulation Efficiency % [6]: 96%
PDI [7]: 0.09314
Size [7]: 143.8
In vitro Viability RAW [8]: 81%

SMILES: CCCCCCCCCC(=O)OCCCCCCCN(CCCCCCCOC(=O)CCCCCCCCC)CCOC(=O)NCCN1CCN(C)CC1 [Lipid 178]
Zeta (mV) [1]: 16.19 mV
In vivo Expression (Whole Body) [2]: 1.31E+06
In vitro Expression RAW [3]: 1.31E+03
In vitro Viability HepG2 [4]: 99%
In vitro Expression HepG2 [5]: 6.17E+04
Encapsulation Efficiency % [6]: 95%
PDI [7]: 0.1534
Size [7]: 61.85
In vitro Viability RAW [8]: 92%

The next lines start with results.

Zeta (mV) [1]: −2.27 mV
Encapsulation Efficiency % [6]: 85%
PDI [7]: 0.2143
Size [7]: 82.84
SMILES: CCCCCCCCCC(=O)OCCCCCCCN(CCCCCCCCOC(=O)C(CCCCCC)CCCCCCCC)CCCOC(=O)NCc1ncc[nH]1 (stereo not drawn) [Lipid 360]
In vivo Expression (Whole Body) [2]: 7.50E+07
In vitro Expression RAW [3]: 1.63E+05
In vitro Viability HepG2 [4]: 113%
In vitro Expression HepG2 [5]: 1.22E+05
In vitro Viability RAW [8]: 86%

Zeta (mV) [1]: 6.547 mV
Encapsulation Efficiency % [6]: 89%
PDI [7]: 0.337
Size [7]: 113.9
SMILES: CCCCCCCCCC(=O)OCCCCCCCN(CCCCCCCCOC(=O)C(CCCCCC)CCCCCCCC)CCCOC(=O)NCCN(C)C (stereo not drawn) [Lipid 359]
In vivo Expression (Whole Body) [2]: 1.85E+06
In vitro Expression RAW [3]: 2.38E+03
In vitro Viability HepG2 [4]: 122%
In vitro Expression HepG2 [5]: 9.26E+04
In vitro Viability RAW [8]: 8%

Zeta (mV) [1]: 4.888 mV
Encapsulation Efficiency % [6]: 86%
PDI [7]: 0.07303
Size [7]: 53.54
SMILES: CCCCCCCCC(CCCCCCCC)OC(=O)CCCCCCCN(CCCCCCCCOC(=O)C(CCCCCC)CCCCCCCC)CCOC(=O)NCCCn1ccnc1 (stereo not drawn) [Lipid 147, 8-((2-(((3-(1H-imidazol-1-yl)propyl)carbamoyl)oxy)ethyl)(8-(heptadecan-9-yloxy)-8-oxooctyl)amino)octyl 2-hexyldecanoate]
In vivo Expression (Whole Body) [2]: 5.02E+07
In vitro Expression RAW [3]: 7.92E+03
In vitro Viability HepG2 [4]: 87%
In vitro Expression HepG2 [5]: 1.60E+04
In vitro Viability RAW [8]: 65%

Zeta (mV) [1]: 0.02482 mV
Encapsulation Efficiency % [6]: 97%
PDI [7]: 0.1452
Size [7]: 75.85
SMILES: CCCCCCCCC(CCCCCCCC)OC(=O)CCCCCCCN(CCCCCCCCOC(=O)C(CCCCCC)CCCCCCCC)CCCOC(=O)NCCc1ncc[nH]1 (stereo not drawn) [Lipid 349]
In vivo Expression (Whole Body) [2]: 1.01E+07
In vitro Expression RAW [3]: 7.58E+03
In vitro Viability HepG2 [4]: 90%
In vitro Expression HepG2 [5]: 2.42E+04
In vitro Viability RAW [8]: 87%

Zeta (mV) [1]: −0.06404 mV
Encapsulation Efficiency % [6]: 95%
PDI [7]: 0.2722
Size [7]: 87.32
SMILES: CCCCCCCCC(CCCCCCCC)OC(=O)CCCCCCCN(CCCCCCCCOC(=O)C(CCCCCC)CCCCCCCC)CCNC(=O)OCCN(C)C (stereo not drawn) [Lipid 279]
In vivo Expression (Whole Body) [2]: 3.67E+07
In vitro Expression RAW [3]: 1.62E+05
In vitro Viability HepG2 [4]: 23%
In vitro Expression HepG2 [5]: 5.05E+06
In vitro Viability RAW [8]: 55%

Zeta (mV) [1]: −0.5834 mV
Encapsulation Efficiency % [6]: 77%
PDI [7]: 0.423
Size [7]: 336.5
SMILES: CCCCCCCCCC(=O)OCCCCCCCN(CCCCCCCCOC(=O)C(CCCCCC)CCCCCCCC)CCCOC(=O)NCCCn1ccnc1 (stereo not drawn) [Lipid 356]
In vivo Expression (Whole Body) [2]: 5.24E+05
In vitro Expression RAW [3]: 1.06E+04
In vitro Viability HepG2 [4]: 112%
In vitro Expression HepG2 [5]: 1.96E+03
In vitro Viability RAW [8]: 84%
